Legend:
chicken MC5R = chicken MC5R (Gallus gallus, UniProt O73671); experiment: pGL3-CRE-luciferase reporter assay, CHO cells expressing chicken MC5R; format: cell-based; details: for ability to activate / sensitivity of cMC5R (in words, ranking): CHO cells expressing cMC5R
Text: All chemicals were purchased from Sigma-Aldrich (St. Louis, MO, United States) and the restriction enzymes were obtained from TaKaRa (Dalian, China). […] All primers used in this study were synthesized by Beijing Genome Institute (BGI, China) and listed in Supplementary Table 1.
(§1) The expression plasmids encoding MC5R, MRAP1 and MRAP2 were established by cloning their entire open reading frame (ORF) into the pcDNA3.1 (+) expression vector (Invitrogen).
(§2) The cells were then transfected with a mixture containing 700 ng pGL3-CRE-Luciferase reporter construct, 200 ng of receptor expression plasmid (or empty pcDNA3.1 vector as a negative control), 20 ng of pRL-TK construct (containing a Renilla luciferase gene, used as an internal control), and 2 μl jetPRIME transfection reagent (Polyplus Transfection, Illkirch, France) in 200 μL buffer. […] After removal of the medium from the 96-well plate, the cells were treated with 100 μl ligand-containing medium (or ligand-free medium) for 6 h. Finally, CHO cells were lysed with 1 × passive lysis buffer for luciferase assay (Promega) and the luciferase activity of the cell lysate was measured by a Multimode Microplate Reader (TriStar LB941, EG&G Berthold, Germany) according to the manufacturer’s instruction.
(§3) All statistical analysis was performed using GraphPad Prism 9 (Graph Pad Software Inc., San Diego, CA). The dose-response curves were constructed using nonlinear regression models. Student’s test was used to compare two groups, for more than two groups one-way ANOVA was performed followed by Dunnett’s test. To validate our results, all in-vitro experiments were repeated three times, and representative data are reported.

chicken MC5R + MRAP1 = chicken MC5R + MRAP1 (Gallus gallus, UniProt O73671); experiment: pGL3-CRE-luciferase reporter assay, CHO cells co-expressing MC5R and cMRAP1; format: cell-based; details: for effect of MRAP1 co-expression on sensitivity of MC5R: vs MC5R expressed alone
chicken MC5R + MRAP1, sequence (O73671 1-325): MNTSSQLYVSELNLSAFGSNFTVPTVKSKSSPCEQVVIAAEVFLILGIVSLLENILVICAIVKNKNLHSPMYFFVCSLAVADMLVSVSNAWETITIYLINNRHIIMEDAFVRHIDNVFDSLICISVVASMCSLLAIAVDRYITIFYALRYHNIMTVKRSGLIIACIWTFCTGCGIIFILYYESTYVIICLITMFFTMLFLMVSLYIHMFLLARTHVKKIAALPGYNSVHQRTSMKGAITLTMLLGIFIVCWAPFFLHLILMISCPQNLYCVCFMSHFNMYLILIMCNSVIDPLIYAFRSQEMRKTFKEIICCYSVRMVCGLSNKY
Procedure: as §1, §2, §3

[1] = tested on: primary chicken hepatocytes; experiment: Glucose production from primary cultured chicken hepatocytes; format: cell-based; details: for glucose production (in words): primary chicken hepatocytes, 100 nM for 30 or 60 min, or 0.1–100 nM for 60 min, gluconeogenic substrates 20 mM lactate, 2 mM pyruvate, four independent experiments, Figures 7A,B
Procedure: (§4) To evaluate the effect of ACTH1-39 on chicken liver, the chicken hepatocytes were prepared and maintained as a monolayer culture. Briefly, one-month-old male chicken hepatocytes were isolated by perfusion of a liver with Ca^2+-free KRB buffer to remove blood cells, and being digested with 0.25% collagenase-I for 10 min. Hepatocytes were obtained following filtering and washing using M199 medium. Then the hepatocytes were plated in a Corning CellBIND 48-well microplate (Corning, NY, cat. no.3338) with M199 medium containing 100 U/ml penicillin and […] streptomycin (Gibco), 5 μg/ml bovine insulin (Sigma), and 5% FBS at 37°C in a 5% CO2 atmosphere. To adhere to the wall, the cells were incubated on the 48-well plate for 4 h.
Glucose production from primary cultured chicken hepatocytes was measured as previously described ([Collins et al., 2006]). Briefly, cells were washed three times with warm phosphate-buffered saline (PBS) to remove glucose, followed by treatment with 100 nM (or different concentration gradients) chicken ATCH1-39 for 30 min or 60 min in glucose-free medium containing gluconeogenic substrates (20 mM sodium lactate and 2 mM sodium pyruvate). Glucose concentration was determined with a glucose assay kit (Applygen, Beijing, China, catalog no. E1011). Briefly, the 5 µl medium was added into 195 µl reagent and incubated for 20 min at 37°C. Absorbance in 550 nm was measured in a standard glucose solution.

[2] = tested on: ELOVL6 mRNA, primary chicken hepatocytes; experiment: ELOVL6 mRNA in primary chicken hepatocytes, RT-qPCR; format: cell-based; details: 6 h, N = 4, Figures 8A-C
Procedure: as §4
(§5) For quantitative real-time PCR, primary cultured chicken hepatocytes were treated with various concentrations of ACTH1-39 (or other composition) at 37°C for 6 h. The relative amount of mRNA was calculated using the comparative Ct method. Chicken β-actin gene was used as the reference gene. Amplification of specific transcripts was confirmed by analyzing the melting curve profile performed at the end of each run and by determining the size of the PCR products using agarose electrophoresis and ethidium bromide staining.

[3] = tested on: FASN mRNA, primary chicken hepatocytes; experiment: FASN mRNA in primary chicken hepatocytes, RT-qPCR; format: cell-based; details: 0.1–100 nM, 6 h, N = 4, Figure 8H, listed as not decreased
Procedure: as §4, §5

chicken MC1R = tested on: chicken MC1R; design: method as in Ling et al., 2003; Ling et al., 2004; Mundy, 2005; details: ref Ling et al., 2003, 2004, Mundy, 2005; cited from earlier work

chicken MC5R, sequence (O73671 1-325): as above

H-SYSMEHFRWGKPVGRKRRPIKVYPNGVDEESAESYPMEF-OH [ACTH1-39]
ability to activate / sensitivity of cMC5R (in words, ranking) (chicken MC5R): ACTH1-39 ≈ α-MSH > β-MSH > γ-MSH
ability to activate / sensitivity of cMC5R (in words, ranking) (chicken MC5R; listed as ACTH): highest potency to activate cMC5R
EC50 (chicken MC5R; Table 1 / Figure 3, CHO cells, MC5R alone, 6 h, mean ± SEM of at least three independent experiments (figure: four replicates), read-out: EC50, MC5R expressed alone): 5.91 ± 1.18 nM
EC50 (chicken MC5R + MRAP1; Table 1 / Figure 3, co-expressed with cMRAP1, 6 h, pGL3-CRE-luciferase, mean ± SEM of at least three independent experiments (figure: four replicates)): 2.12 ± 0.37 nM
effect of MRAP1 co-expression on sensitivity of MC5R (chicken MC5R + MRAP1): did not affect the sensitivity of cMC5R to ACTH1-39
effect of MRAP1 co-expression on sensitivity of MC5R (chicken MC5R + MRAP1; listed as ACTH): no effect on the sensitivity of chicken MC5R for ACTH
time from which glucose production significantly increased ([1]; 100 nM ACTH, 30 and 60 min, Figure 7A): ≥ 0.5 h
dose from which glucose production significantly increased ([1]; 0.1–100 nM ACTH, 60 min, Figure 7B): ≥ 1 nM
glucose production (in words) [1]: enhanced glucose production
glucose production (in words) ([1]; listed as ACTH): induction of gluconeogenesis
glucose production (in words) ([1]; listed as cACTH1-39): significantly increased the level of glucose production
ELOVL6 mRNA expression [2]: dose-dependently decreased
FASN mRNA expression [3]: instead of ACACA, FASN and SCD
MC1R response (chicken MC1R): promoting intracellular cAMP accumulation

Source: article PMC9583845, “Characterization of the chicken melanocortin 5 receptor and its potential role in regulating hepatic glucolipid metabolism” (Frontiers in Physiology, 2022)
